One data set deals with glucose assimilation. Conditions: comparable to the effect of 200 nM insulin; cited from earlier work.
The next data set concerns pyruvate dehydrogenase. Conditions: cited from earlier work.
A short description of data set [1]: Storage stability of magnesium R-(+)-α-lipoate at room temperature / ambient humidity.
Excerpt: Test samples of magnesium R-(+)-α-lipoate were stored at ambient temperatures for two years.
For data set [2] the following is noted: closed and sealed amber container, cited from earlier work.
Data set [3] has as its system glucose transporters (GLUT 1 and GLUT 4). Particulars: cited from earlier work.
Data set [4] deals with neuropathic symptoms and deficits. Conditions: 600 mg/day over a 3-week period; cited from earlier work.
In data set [5] the test system is cardiac autonomic neuropathy. Conditions: 800 mg daily, 4 months, diabetic patients with cardiac autonomic neuropathy; cited from earlier work.
In another data set the test system is diabetic neuropathy. Conditions: >600 mg/day; cited from earlier work.
In data set [6] the test system is neuropathy impairment score. Conditions: 600 mg daily for 6 months, 509 patients; cited from earlier work.
In a further data set the test system is nerve function. Conditions: 600 or 1200 mg daily, 24 months; cited from earlier work.
Another data set has as its system diabetic polyneuropathy. Particulars: 3-week period; cited from earlier work.
Where [7] appears, read: ambient temperatures, two years.

Read-outs that look alike come from different tables or passages of the source.

In the case of `O=C(O)CCCCC1CCSS1` (stereo not drawn) [R-(+)-α-lipoic acid], in the data set with glucose assimilation, the “stimulation of glucose assimilation (factor)” value is “greater than 2”. The “activity of pyruvate dehydrogenase” value in the data set with pyruvate dehydrogenase is “increased”. Also, in data set [1] (setting [7]), the “visible signs of polymerization or degradation” value is “clumping of the compound, development of a strong sulfur odor, and formation of small and visible gummy balls of dark yellow material”. The storage stability entry in [2] (refrigerated temperatures) was “must be used within a few months”. Further, in data set [3], the “translocation of GLUT 1 and GLUT 4 from the cytosol to the plasma membrane” value was “stimulated”.

With `O=C(O)CCCC[C@@H]1CCSS1` [magnesium R-(+)-α-lipoate, magnesium R-(+)-alpha-lipoate], the hygroscopicity entry in data set [1] (ambient environments, relative humidities as high as 75%) is “not hygroscopic”. In addition, in data set [1] (setting [7]), the “chemical composition, purity and chiral purity on storage” value is given as “did not change during storage under these conditions”; the “physical state / appearance and properties on storage” value is given as “did not change over time”; the “visible signs of polymerization or degradation” value was “no visible signs of polymerization or degradation”. In [1] (room temperature, relative humidities as high as 75%, one week), the “physical appearance and properties on storage” value is listed as “did not change during storage”.

Regarding `O=C(O)CCCCC1CCSS1` (stereo not drawn) [α-lipoic acid, 1,2-dithiocyclopentane-3-valeric acid], in data set [4], the “positive neuropathic symptoms and neuropathic deficits; safety” value was “safe and effective”. Further, in [5], the heart rate variability result was “significantly improved”. For the same molecule, in the data set on diabetic neuropathy, the patient symptoms entry is “significantly improved patient symptoms”. For the same molecule, in data set [6], the neuropathy impairment score entry was “improved neuropathy impairment score as early as 19 days”. The nerve function entry in the data set with nerve function is recorded as “improved nerve function”. Besides, the “sensory symptoms (Total Symptom Score)” value in the data set on diabetic polyneuropathy was “improved sensory symptoms”. For the same molecule, the storage stability result in [2] (room temperature) is “a year or longer”.

With S-(−)-α-lipoic acid [S-(−)-α-lipoate], the “stimulation of glucose assimilation (factor)” value with glucose assimilation is on record as “little or no change”. The “activity of pyruvate dehydrogenase” value with pyruvate dehydrogenase is reported as “inhibited”. For the same molecule, in data set [3], the “total content of glucose transporters” value is listed as “appeared to lower”; the “translocation of GLUT 1 and GLUT 4 from the cytosol to the plasma membrane” value was “had no effect or has an inhibiting effect”.

Values taken from patent publication US8222432B2 (BioLink Life Sciences, Inc., priority 2008, dated 2012).
